In the experiment the target is T1, F508del (Homo sapiens, UniProt P13569, DEL508-508).
T1 construct: expressed in transfected cells
As to the kind of experiment: Protocol 2: FRET membrane potential optical assay (VIPR), identification of correction compounds. It counts as cell-based. Put shortly: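 Single-addition HTS format: F508del-expressing NIH3T3 cells pre-incubated 16 hrs at 37° C. ± compound, with 27° C. culture as positive control. Channel activation by forskolin 10 μM and genistein 20 μM upon switch to gluconate bath, pH 7.4; read-out is FRET-based depolarization signal.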

[1] abbreviates: F508del CFTR modulator activity, compounds of Table 1, read-out: EC30.
The mark [2] stands for this setting: Table 3, compounds of Table 1 as modulators of CFTR activity, protocol not stated.

SMILES strings stand for the structures. Read-outs that look alike come from different tables or passages of the source.

T1 sequence (P13569 with tags, fused parts or gaps DEL508-508): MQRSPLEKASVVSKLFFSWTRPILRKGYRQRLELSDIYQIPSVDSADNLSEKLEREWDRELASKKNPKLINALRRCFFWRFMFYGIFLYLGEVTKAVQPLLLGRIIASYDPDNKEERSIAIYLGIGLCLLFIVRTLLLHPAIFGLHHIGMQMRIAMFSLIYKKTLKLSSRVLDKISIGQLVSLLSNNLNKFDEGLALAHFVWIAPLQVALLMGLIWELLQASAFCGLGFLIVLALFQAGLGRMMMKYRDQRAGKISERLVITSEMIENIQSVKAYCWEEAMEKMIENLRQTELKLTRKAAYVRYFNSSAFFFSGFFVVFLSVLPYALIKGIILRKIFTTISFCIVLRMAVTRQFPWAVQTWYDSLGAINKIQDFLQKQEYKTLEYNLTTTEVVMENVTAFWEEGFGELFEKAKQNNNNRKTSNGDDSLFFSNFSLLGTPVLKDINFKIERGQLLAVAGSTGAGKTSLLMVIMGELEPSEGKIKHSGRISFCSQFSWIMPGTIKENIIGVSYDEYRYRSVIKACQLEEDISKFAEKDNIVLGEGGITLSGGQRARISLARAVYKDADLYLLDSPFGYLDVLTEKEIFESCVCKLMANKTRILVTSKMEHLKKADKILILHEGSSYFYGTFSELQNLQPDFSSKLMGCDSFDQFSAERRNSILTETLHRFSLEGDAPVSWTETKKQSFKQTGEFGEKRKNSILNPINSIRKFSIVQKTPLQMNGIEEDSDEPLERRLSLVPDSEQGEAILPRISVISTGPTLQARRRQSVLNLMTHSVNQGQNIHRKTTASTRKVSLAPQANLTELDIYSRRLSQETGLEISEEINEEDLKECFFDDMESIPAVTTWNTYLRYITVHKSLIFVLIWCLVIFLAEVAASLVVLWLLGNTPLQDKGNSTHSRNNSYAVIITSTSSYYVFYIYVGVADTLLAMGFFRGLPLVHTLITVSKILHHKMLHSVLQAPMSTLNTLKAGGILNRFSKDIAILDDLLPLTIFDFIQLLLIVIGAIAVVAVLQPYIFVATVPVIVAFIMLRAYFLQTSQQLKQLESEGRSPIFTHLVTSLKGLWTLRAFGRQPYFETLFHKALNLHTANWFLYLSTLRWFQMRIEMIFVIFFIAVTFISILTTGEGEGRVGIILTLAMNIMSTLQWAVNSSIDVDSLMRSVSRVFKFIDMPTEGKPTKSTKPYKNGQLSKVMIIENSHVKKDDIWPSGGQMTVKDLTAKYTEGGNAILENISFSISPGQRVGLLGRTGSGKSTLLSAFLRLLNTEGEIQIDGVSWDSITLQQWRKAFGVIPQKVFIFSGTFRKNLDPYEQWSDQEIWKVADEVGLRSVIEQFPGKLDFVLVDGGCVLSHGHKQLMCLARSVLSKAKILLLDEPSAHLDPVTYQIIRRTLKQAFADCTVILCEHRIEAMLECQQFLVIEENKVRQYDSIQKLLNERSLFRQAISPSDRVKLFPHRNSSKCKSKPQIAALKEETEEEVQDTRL

Take `CCOc1cc(C)cc(-c2ccc(C(=O)NS(=O)(=O)c3ccc[nH]c3=O)c(N3C[C@@H](C)CC3(C)C)n2)c1` [Compound 2512, 6-(3-ethoxy-5-methyl-phenyl)-N-[(2-oxo-1H-pyridin-3-yl)sulfonyl]-2-[(4S)-2,2,4-trimethylpyrrolidin-1-yl]pyridine-3-carboxamide]: under setting [1], the EC30 was less than 3000 nM. Still for that read-out and setting: the result for `Cc1ccc(CCNc2cccc(S(=O)(=O)NC(=O)c3cccnc3N3CC(C)CC3(C)C)n2)cc1` (stereo not drawn) [Compound 2502, N—[[6-[2-(p-tolyl)ethylamino]-2-pyridyl]sulfonyl]-2-(2,2,4-trimethylpyrrolidin-1-yl)pyridine-3-carboxamide] reads less than 3000 nM. On to `COc1ccc(-c2ccc(C(=O)NS(=O)(=O)c3cccc(N)n3)c(N3[C@H](C)CC[C@@H]3C)n2)cn1` [Compound 726, N-[(6-amino-2-pyridyl)sulfonyl]-2-[(2S,5R)-2,5-dimethylpyrrolidin-1-yl]-6-(6-methoxy-3-pyridyl)pyridine-3-carboxamide], for which the EC30 result under setting [2] was “++ (“++” means between 3 uM and 10 uM)”.

In the case of `Cc1cccc(C)c1Cn1nc(-c2ccccc2N(C)C)cc1C(=O)NS(=O)(=O)c1ccccc1` [Compound 128, N-(benzenesulfonyl)-5-[2-(dimethylamino)phenyl]-2-[(2,6-dimethylphenyl)methyl]pyrazole-3-carboxamide], the EC30 result under setting [2] is reported as “+++ (“+++” means <3 uM)”. As for `CC1CN(c2ncccc2C(=O)NS(=O)(=O)c2cccc(N3Cc4ccccc4C[C@H]3C(=O)O)n2)C(C)(C)C1` (stereo partly drawn) [Compound 2321, (3S)-2-[6-[[2-(2,2,4-trimethylpyrrolidin-1-yl)pyridine-3-carbonyl]sulfamoyl]-2-pyridyl]-3,4-dihydro-1H-isoquinoline-3-carboxylic acid], the EC30 under setting [1] lay in the range of 3000 to 10000 nM.

Turning to `CC1CN(c2ncccc2C(=O)NS(=O)(=O)c2cccc(OC3(C)CCCCCC3)n2)C(C)(C)C1` (stereo not drawn) [Compound 2057, N—[[6-(1-methylcycloheptoxy)-2-pyridyl]sulfonyl]-2-(2,2,4-trimethylpyrrolidin-1-yl)pyridine-3-carboxamide], the EC30 under setting [1] was less than 3000 nM. As for `COCc1cccc(-c2ccc(C(=O)NS(=O)(=O)c3cccc(N)n3)c(Oc3c(C)cc(C)cc3C)n2)c1` [Compound 69, N-[(6-amino-2-pyridyl)sulfonyl]-6-[3-(methoxymethyl)phenyl]-2-(2,4,6-trimethylphenoxy)pyridine-3-carboxamide], the 30% effect concentration (EC30) result under setting [2] is given as “+++ (“+++” means <3 uM)”.

Turning to `Cc1cc(OCC(C)C)cc(-c2cnc(N3CC(C)CC3(C)C)c(C(=O)NS(=O)(=O)c3cccc(N)n3)c2)c1` (stereo not drawn) [Compound 2558, N-[(6-amino-2-pyridyl)sulfonyl]-5-(3-isobutoxy-5-methyl-phenyl)-2-(2,2,4-trimethylpyrrolidin-1-yl)pyridine-3-carboxamide], the EC30 under setting [1] was less than 3000 nM.

For `Cc1cc(C)c(Cc2nc(C(C)(C)C)ccc2C(=O)NS(=O)(=O)c2cccc(N)c2)c(C)c1` [Compound 346, N-(3-aminophenyl)sulfonyl-6-tert-butyl-2-[(2,4,6-trimethylphenyl)methyl]pyridine-3-carboxamide], the 30% effect concentration (EC30) result under setting [2] was “+++ (“+++” means <3 uM)”. In the case of `CCCOc1ccc(C)cc1-c1ccc(C(=O)NS(=O)(=O)c2cccc(N)n2)c(N2C[C@@H](C)CC2(C)C)n1` [Compound 2085, N-[(6-amino-2-pyridyl)sulfonyl]-6-(5-methyl-2-propoxy-phenyl)-2-[(4S)-2,2,4-trimethylpyrrolidin-1-yl]pyridine-3-carboxamide], the EC30 under setting [1] is less than 3000 nM.

As for `CC(C)COc1cc(F)cc(-c2ccc(C(=O)NS(=O)(=O)N[C@@H]3CCCNC3)c(N3C[C@@H](C)CC3(C)C)n2)c1` [Compound 2677, 6-(3-fluoro-5-isobutoxy-phenyl)-N-[[(3R)-3-piperidyl]sulfamoyl]-2-[(4S)-2,2,4-trimethylpyrrolidin-1-yl]pyridine-3-carboxamide], under setting [1], the EC30 was less than 3000 nM. In the case of `C[C@@H]1CN(c2nc(C3CCC(C(F)(F)F)CC3)ccc2C(=O)NS(=O)(=O)c2cccnc2N)C(C)(C)C1` (single isomer, unassigned) [Compound 2077], under setting [1], the concentration for an effect of 30% (EC30) is less than 3000 nM. For `Cc1cc(C)c(Oc2nc(-n3nc(C(F)(F)F)cc3C)ccc2C(=O)NS(=O)(=O)c2cccc(N)n2)c(C)c1` [Compound 633, N-[(6-amino-2-pyridyl)sulfonyl]-6-[5-methyl-3-(trifluoromethyl)pyrazol-1-yl]-2-(2,4,6-trimethylphenoxy)pyridine-3-carboxamide], under setting [2], the EC30 result is “+++ (“+++” means <3 uM)”.

Turning to `C[C@@H]1CC[C@H](C)N1c1nc(C(C)(C)C)ccc1C(=O)NS(=O)(=O)c1cccc(N)n1` [Compound 373, N-[(6-amino-2-pyridyl)sulfonyl]-6-tert-butyl-2-[(2S,5R)-2,5-dimethylpyrrolidin-1-yl]pyridine-3-carboxamide], the EC30 result under setting [2] is “++ (“++” means between 3 uM and 10 uM)”. Same read-out and setting: in the case of `C[C@@H]1CC[C@H](C)N1c1nc(C2CCCCC2)ccc1C(=O)NS(=O)(=O)c1cccc(N)n1` [Compound 704, N-[(6-amino-2-pyridyl)sulfonyl]-6-cyclohexyl-2-[(2S,5R)-2,5-dimethylpyrrolidin-1-yl]pyridine-3-carboxamide] it was “++ (“++” means between 3 uM and 10 uM)”.

Take `COc1ccc(-c2ccc(C(=O)NS(=O)(=O)c3ccc[nH]c3=O)c(N3C[C@@H](C)CC3(C)C)n2)c(F)c1F` [Compound 2567, 6-(2,3-difluoro-4-methoxy-phenyl)-N-[(2-oxo-1H-pyridin-3-yl)sulfonyl]-2-[(4S)-2,2,4-trimethylpyrrolidin-1-yl]pyridine-3-carboxamide]: the EC30 under setting [1] was less than 3000 nM. As to `CC(C)(C)c1cc(C(=O)NS(=O)(=O)c2cccc(N)c2)n(Cc2c(F)cccc2C(F)(F)F)n1` [Compound 239, N-(3-aminophenyl)sulfonyl-5-tert-butyl-2-[[2-fluoro-6-(trifluoromethyl)phenyl]methyl]pyrazole-3-carboxamide], the EC30 result under setting [2] is listed as “+++ (“+++” means <3 uM)”.

Take `CC1CN(c2ncc(-c3ccc(CO)cc3)cc2C(=O)NS(=O)(=O)c2cccc(N)n2)C(C)(C)C1` (stereo not drawn) [Compound 2088, N-[(6-amino-2-pyridyl)sulfonyl]-5-[4-(hydroxymethyl)phenyl]-2-(2,2,4-trimethylpyrrolidin-1-yl)pyridine-3-carboxamide]: the EC30 under setting [1] is 3000 to 10000 nM.

As to `CC(C)OC(=O)N1CCC=C(c2ccc(C(=O)NS(=O)(=O)c3cccc(N)n3)c(N3C[C@@H](C)CC3(C)C)n2)C1` [Compound 2622, isopropyl 5-[5-[(6-amino-2-pyridyl)sulfonylcarbamoyl]-6-[(4S)-2,2,4-trimethylpyrrolidin-1-yl]-2-pyridyl]-3,6-dihydro-2H-pyridine-1-carboxylate], the EC30 under setting [1] was less than 3000 nM.

For `CC(Oc1ncccc1C(=O)NS(=O)(=O)c1cccc(N)n1)c1ccccc1C(F)(F)F` (stereo not drawn) [Compound 2501], the EC30 under setting [1] was in the range of 3000 to 10000 nM.

With `CCOc1ccc(-c2ccc(C(=O)NS(=O)(=O)c3ccc[nH]c3=O)c(N3C[C@@H](C)CC3(C)C)n2)cc1` [Compound 2207, 6-(4-ethoxyphenyl)-N-[(2-oxo-1H-pyridin-3-yl)sulfonyl]-2-[(4S)-2,2,4-trimethylpyrrolidin-1-yl]pyridine-3-carboxamide], the EC30 under setting [1] was less than 3000 nM. For `COc1ncc(-c2ccc(C(=O)NS(=O)(=O)c3cccc(N)n3)c(Oc3c(C)cc(C)cc3C)n2)c(OC)n1` [Compound 499, N-[(6-amino-2-pyridyl)sulfonyl]-6-(2,4-dimethoxypyrimidin-5-yl)-2-(2,4,6-trimethylphenoxy)pyridine-3-carboxamide], the EC30 entry under setting [2] is “++ (“++” means between 3 uM and 10 uM)”. As for `C[C@@H]1CN(c2ncccc2C(=O)NS(=O)(=O)N2CC[C@@H](NCc3ccc(OC(C)(C)C)cc3)C2)C(C)(C)C1` [Compound 2693], under setting [1], the 30% effect concentration (EC30) lay in the range of 3000 to 10000 nM. `COc1ccc(OC)c(-c2ccc(C(=O)NS(=O)(=O)c3cccnc3N)c(N3C[C@@H](C)CC3(C)C)n2)c1` [Compound 2195, N-[(2-amino-3-pyridyl)sulfonyl]-6-(2,5-dimethoxyphenyl)-2-[(4S)-2,2,4-trimethylpyrrolidin-1-yl]pyridine-3-carboxamide]: under setting [1], the EC30 was less than 3000 nM. As to `CC(C)COc1cc(F)cc(-c2ccc(C(=O)NS(=O)(=O)c3ccc[nH]c3=O)c(N3[C@H](C)CC[C@@H]3C)n2)c1` [Compound 307, 2-(2,5-dimethylpyrrolidin-1-yl)-6-(3-fluoro-5-isobutoxy-phenyl)-N-[(2-oxo-1H-pyridin-3-yl)sulfonyl]pyridine-3-carboxamide], the EC30 result under setting [2] is “+++ (“+++” means <3 uM)”. On to `COc1ncccc1S(=O)(=O)NC(=O)c1cc(C(C)(C)C)nn1Cc1c(C)cc(C)cc1C` [Compound 759, 5-tert-butyl-N-[(2-methoxy-3-pyridyl)sulfonyl]-2-[(2,4,6-trimethylphenyl)methyl]pyrazole-3-carboxamide], for which, under setting [2], the EC30 entry was “+++ (“+++” means <3 uM)”. Still for that read-out and setting: the result for `Cc1cc(C)c(Oc2nc(C(C)(C)C)ccc2C(=O)NS(=O)(=O)c2ccnc(N)c2)c(C)c1` [Compound 283, N-[(2-amino-4-pyridyl)sulfonyl]-6-tert-butyl-2-(2,4,6-trimethylphenoxy)pyridine-3-carboxamide] reads “+++ (“+++” means <3 uM)”. The same measure, in the same setting: the result for `Cc1cc(C)c(Cn2nc(C(C)(C)C)cc2C(=O)NS(=O)(=O)c2cccc(N)c2)c(C)c1` [Compound 110, N-(3-aminophenyl)sulfonyl-5-tert-butyl-2-[(2,4,6-trimethylphenyl)methyl]pyrazole-3-carboxamide] reads “+++ (“+++” means <3 uM)”; that for `Cc1cc(C)c(Cn2c(C(=O)NS(=O)(=O)c3ccc(N)cc3)cc3ccccc32)c(C)c1` [Compound 134, N-(4-aminophenyl)sulfonyl-1-[(2,4,6-trimethylphenyl)methyl]indole-2-carboxamide], “+++ (“+++” means <3 uM)”. As to `CC1CN(c2ncccc2C(=O)NS(=O)(=O)c2cccc(Nc3ccc(Cl)cc3Cl)n2)C(C)(C)C1` (stereo not drawn) [Compound 2217, N—[[6-(2,4-dichloroanilino)-2-pyridyl]sulfonyl]-2-(2,2,4-trimethylpyrrolidin-1-yl)pyridine-3-carboxamide], the EC30 under setting [1] was less than 3000 nM.

The values above are taken from patent publication US10758534B2 (Vertex Pharmaceuticals Incorporated, priority 2014, dated 2020).
